Results on one molecule are retold here after ChEMBL document CHEMBL6109156, “Discovery of Dual PD-L1/HDAC3 Inhibitors for Tumor Immunotherapy” (J Med Chem, 2025).

Active and inactive are the calls of the source. The rule behind the calls is not given here. A value given as a limit tells only on which side of the number the result lay.

Series [1] has as its system B16-F10. In words: Induction of apoptosis in mouse B16-F10 cells assessed as viable cells at 8 uM incubated for 48 hrs by Annexin V-FITC/PI staining based flow cytometry analysis (reference value: 92.3%). It is filed as functional. Conditions: read-out: Activity.
Series [2] addresses T1, Histone deacetylase 3 (Homo sapiens, UniProt O15379). In words: Inhibition of human recombinant HDAC3 using Ac-Leu-Gly-Lys (Ac)-AMC as substrate preincubated for 10 mins followed by substrate addition and measured after 45 mins by TECAN microtiter plate reader analysis.
The test system of series [3] is B16-F10. In words: Induction of cell cycle arrest in mouse B16-F10 cells assessed as accumulation of cells at G0/G1 phase at 1 uM incubated for 48 hrs by PI staining based flow cytometry analysis (reference value: 70.09%). It is filed as functional. In general terms: In flow cytometry, cells or beads pass a laser one at a time.
The next series has as its system HepG2. The series can be described thus: Antiproliferative activity against human HepG2 cells assessed as cell growth inhibition incubated for 48 hrs by MTT assay. It is filed as functional, cell-based. Conditions: HepG2, 48 h.
In a further series the test system is A-375. In words: Antiproliferative activity against human A-375 cells co-cultured with human Jurkat T cells incubated for 48 hrs by MTT assay. It is filed as functional, cell-based. Conditions: dose 0.0625-1 µM. (Tetrazolium dyes change colour on reduction, which living cells bring about.)
The test system of series [4] is B16-F10. The series can be described thus: Induction of cell cycle arrest in mouse B16-F10 cells assessed as accumulation of cells at S phase at 1 uM incubated for 48 hrs by PI staining based flow cytometry analysis (reference value: 24.04%). It is filed as functional.
The target of series [5] is T2, Histone deacetylase 3 (Mus musculus) (UniProt O88895).
T2 sequence (whole entry): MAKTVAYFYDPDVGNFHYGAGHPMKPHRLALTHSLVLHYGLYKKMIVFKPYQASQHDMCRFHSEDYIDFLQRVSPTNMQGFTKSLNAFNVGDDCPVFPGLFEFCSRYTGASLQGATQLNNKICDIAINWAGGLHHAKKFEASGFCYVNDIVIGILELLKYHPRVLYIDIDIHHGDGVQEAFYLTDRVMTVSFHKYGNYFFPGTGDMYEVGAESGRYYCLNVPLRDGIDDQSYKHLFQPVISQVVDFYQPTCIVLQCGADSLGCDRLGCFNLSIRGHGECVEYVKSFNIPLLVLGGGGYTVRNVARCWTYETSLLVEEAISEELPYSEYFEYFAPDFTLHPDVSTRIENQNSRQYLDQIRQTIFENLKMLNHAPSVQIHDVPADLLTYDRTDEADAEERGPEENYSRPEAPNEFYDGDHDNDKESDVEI
The series can be described thus: Inhibition of HDAC3 in mouse B16-F10 cells assessed as upregulation of Ac-H3 level at 3 uM incubated for 24 hrs by Western blotting analysis. It is filed as cell-based. In general terms: In western blotting, separated proteins are transferred to a membrane and probed.

Series [6] concerns B16-F10. The series can be described thus: Induction of apoptosis in mouse B16-F10 cells assessed as necrotic cells at 4 uM incubated for 48 hrs by Annexin V-FITC/PI staining based flow cytometry analysis (reference value: 2.24%). It is filed as functional.
Series [7] in a line: Toxicity in C57BL/6J mouse implanted with mouse B16-F10 cells assessed as body weight loss at 20 to 40 mg/kg, ip administered once daily for 9 days. It is filed as organism-based. Conditions: in vivo, 216 h, dose 20-40 mg/kg, time 9 day.
The test system of series [8] is B16-F10. In words: Induction of cell cycle arrest in mouse B16-F10 cells assessed as accumulation of cells at G0/G1 phase at 4 uM incubated for 48 hrs by PI staining based flow cytometry analysis (reference value: 70.09%). It is filed as functional.
Series [9] concerns B16-F10. In words: Induction of cell cycle arrest in mouse B16-F10 cells assessed as accumulation of cells at G2/M phase at 4 uM incubated for 48 hrs by PI staining based flow cytometry analysis (reference value: 5.87%). It is filed as functional.
The target in series [10] is T1, Histone deacetylase 3. In words: Inhibition of human recombinant HDAC3 using Ac-Leu-Gly-Lys (Ac)-AMC as substrate at 0.1 uM preincubated for 10 mins followed by substrate addition and measured after 45 mins by TECAN microtiter plate reader analysis relative to control. Conditions: time 55.0 min.
The test system of series [11] is B16-F10. The series can be described thus: Induction of cell cycle arrest in mouse B16-F10 cells assessed as accumulation of cells at G0/G1 phase at 2 uM incubated for 48 hrs by PI staining based flow cytometry analysis (reference value: 70.09%). It is filed as functional.
Series [12] has as its system B16-F10. The series can be described thus: Immunomodulatory activity in mouse B16-F10 cells implanted in C57BL/6J mouse assessed as percentage of CD3 positive CD4 positive cells in tumor at 20 mg/kg, ip administered once daily for 9 days by flow cytometric analysis (reference value: 0.20 %). It is filed as functional. Conditions: time 9 day.
Series [13] has as its system B16-F10. The series can be described thus: Immunomodulatory activity in mouse B16-F10 cells implanted in C57BL/6J mouse assessed as percentage of CD3 positive CD8 positive cells in tumor at 20 mg/kg, ip administered once daily for 9 days by flow cytometric analysis (reference value: 0.44 %). It is filed as functional. Conditions: time 9 day.
The target of a further series is T3, Histone deacetylase 8 (Homo sapiens, UniProt Q9BY41).
T3 sequence (Q9BY41 whole entry): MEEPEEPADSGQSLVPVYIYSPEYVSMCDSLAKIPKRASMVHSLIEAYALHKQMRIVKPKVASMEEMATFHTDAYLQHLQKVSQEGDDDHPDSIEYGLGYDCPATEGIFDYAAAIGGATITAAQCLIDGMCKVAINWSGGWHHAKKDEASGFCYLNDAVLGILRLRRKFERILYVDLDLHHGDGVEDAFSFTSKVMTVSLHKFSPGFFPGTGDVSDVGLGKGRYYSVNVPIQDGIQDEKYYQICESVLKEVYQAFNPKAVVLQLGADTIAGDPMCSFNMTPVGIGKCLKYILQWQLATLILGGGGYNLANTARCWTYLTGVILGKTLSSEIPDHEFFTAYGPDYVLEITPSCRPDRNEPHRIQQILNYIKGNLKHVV
The series can be described thus: Inhibition of human recombinant HDAC8 using Ac-Leu-Gly-Lys (Tfa)-AMC as substrate preincubated for 10 mins followed by substrate addition and measured after 45 mins by TECAN microtiter plate reader analysis.

Series [14] deals with Programmed cell death protein 1/Programmed cell death 1 ligand 1 (Homo sapiens, UniProt Q9NZQ7). In words: (§1) Inhibition of PD-1/PD-L1 (unknown origin) interaction assessed as inhibition rate at 1 uM by HTRF assay relative to control. It is filed as protein-complex assay.
The target in series [15] is Programmed cell death protein 1/Programmed cell death 1 ligand 1 (Homo sapiens) (UniProt Q15116+Q9NZQ7). The description is as §1. It is filed as protein-complex assay.
In series [16] the test system is B16-F10. In words: Induction of cell cycle arrest in mouse B16-F10 cells assessed as accumulation of cells at S phase at 2 uM incubated for 48 hrs by PI staining based flow cytometry analysis (reference value: 24.04%). It is filed as functional.
The subject of series [17] is B16-F10. The series can be described thus: Induction of apoptosis in mouse B16-F10 cells assessed as early apoptotic cells at 1 uM incubated for 48 hrs by Annexin V-FITC/PI staining based flow cytometry analysis (reference value: 0.45 %). It is filed as functional.
In series [18] the test system is B16-F10. In words: Induction of apoptosis in mouse B16-F10 cells assessed as viable cells at 1 uM incubated for 48 hrs by Annexin V-FITC/PI staining based flow cytometry analysis (reference value: 92.3%). Conditions: read-out: Activity. It is filed as functional.
Another series has as its system 4T1. The series can be described thus: Antiproliferative activity against mouse 4T1 cells assessed as cell growth inhibition incubated for 48 hrs by MTT assay. It is filed as functional, cell-based. Conditions: 4T1, 48 h.
The test system of series [19] is B16-F10. In words: Induction of apoptosis in mouse B16-F10 cells assessed as early apoptotic cells at 8 uM incubated for 48 hrs by Annexin V-FITC/PI staining based flow cytometry analysis (reference value: 0.45 %). It is filed as functional.

T1 sequence (O15379 whole entry): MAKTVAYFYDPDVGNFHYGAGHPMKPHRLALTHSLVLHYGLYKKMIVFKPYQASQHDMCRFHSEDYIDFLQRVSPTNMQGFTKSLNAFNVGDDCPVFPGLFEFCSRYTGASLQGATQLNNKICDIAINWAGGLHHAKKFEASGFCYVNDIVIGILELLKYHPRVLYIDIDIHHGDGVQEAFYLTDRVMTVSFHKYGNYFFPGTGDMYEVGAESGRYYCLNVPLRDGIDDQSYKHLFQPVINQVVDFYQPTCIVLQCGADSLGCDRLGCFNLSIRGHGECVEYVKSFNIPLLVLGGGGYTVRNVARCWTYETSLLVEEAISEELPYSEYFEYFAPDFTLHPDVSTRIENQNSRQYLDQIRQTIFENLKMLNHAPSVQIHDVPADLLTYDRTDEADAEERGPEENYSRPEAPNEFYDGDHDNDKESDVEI
Chain of Programmed cell death protein 1/Programmed cell death 1 ligand 1 (Q15116 whole entry): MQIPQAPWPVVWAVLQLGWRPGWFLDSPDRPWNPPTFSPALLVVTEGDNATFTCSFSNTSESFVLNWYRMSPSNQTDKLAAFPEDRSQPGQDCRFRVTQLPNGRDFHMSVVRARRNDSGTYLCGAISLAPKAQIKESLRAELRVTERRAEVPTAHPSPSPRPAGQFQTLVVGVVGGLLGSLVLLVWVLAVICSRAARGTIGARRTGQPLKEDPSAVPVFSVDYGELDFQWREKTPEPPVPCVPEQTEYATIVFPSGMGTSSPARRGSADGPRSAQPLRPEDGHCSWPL
Chain of Programmed cell death protein 1/Programmed cell death 1 ligand 1 (Q9NZQ7 whole entry): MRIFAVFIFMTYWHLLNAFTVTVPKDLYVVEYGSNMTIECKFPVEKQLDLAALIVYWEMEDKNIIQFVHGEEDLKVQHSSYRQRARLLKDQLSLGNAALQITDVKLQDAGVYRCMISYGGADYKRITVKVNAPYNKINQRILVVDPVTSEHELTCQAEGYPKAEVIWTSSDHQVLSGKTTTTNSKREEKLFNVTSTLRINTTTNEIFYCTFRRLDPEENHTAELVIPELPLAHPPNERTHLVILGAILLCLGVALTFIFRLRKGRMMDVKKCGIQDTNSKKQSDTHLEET

As to `CCCNNC(=O)CCCNCc1ccc(-c2cccc(-c3ccccc3)c2C)nc1OC`, in the series on B16-F10 [1], the viability at 8 µM was determined as 53.6%. For the same molecule, the IC50 on Histone deacetylase 3 [2] is 0.107 µM; in the series on HepG2, 4 µM; on Histone deacetylase 8, above 10 µM; in series [14], 0.0894 µM; with 4T1, 4.66 µM. Further, the Activity was 73.46% in the series on B16-F10 [3]; “Dose-dependent-effect” in the series with A-375; 21.79% in the series on B16-F10 [4]; 4.08% in the series with B16-F10 [6]; “Non-toxic” in series [7]; 91.66% in the series on B16-F10 [8]. Moreover, the Activity in the series on B16-F10 [9] is on record as 3.65%; in the series with B16-F10 [11], 87.25%; in the series with B16-F10 [12], 1.75%; in the series on B16-F10 [13], 4.31%; in the series with B16-F10 [16], 7.79%; in the series with B16-F10 [17], 3.34%. Also, the Activity in the series on B16-F10 [19] came out at 32.8%. In addition, the inhibition entry in [5] is “Active”. In addition, the inhibition on Histone deacetylase 3 [10] is 42%; in series [15], 94.3%. The viability at 1 µM in the series with B16-F10 [18] stood at 84.8%.

For orientation: IC50 means the concentration at which inhibition is half-maximal. As a reminder, the inhibition is the drop in the measured response relative to a control, in per cent.
